Values of other authors as cited in patent publication US20070260203A1, “Vasoactive agent intraocular implant” (ALLERGAN, INC., priority 2006, published 2007).
Read-outs that look alike come from different tables or passages of the source.

Experiments:
[1] = biological target: T1, endothelin-A receptor (Homo sapiens, UniProt P25101); settings: competitive antagonist of both ETA and ETB
T1 sequence (P25101 21-427): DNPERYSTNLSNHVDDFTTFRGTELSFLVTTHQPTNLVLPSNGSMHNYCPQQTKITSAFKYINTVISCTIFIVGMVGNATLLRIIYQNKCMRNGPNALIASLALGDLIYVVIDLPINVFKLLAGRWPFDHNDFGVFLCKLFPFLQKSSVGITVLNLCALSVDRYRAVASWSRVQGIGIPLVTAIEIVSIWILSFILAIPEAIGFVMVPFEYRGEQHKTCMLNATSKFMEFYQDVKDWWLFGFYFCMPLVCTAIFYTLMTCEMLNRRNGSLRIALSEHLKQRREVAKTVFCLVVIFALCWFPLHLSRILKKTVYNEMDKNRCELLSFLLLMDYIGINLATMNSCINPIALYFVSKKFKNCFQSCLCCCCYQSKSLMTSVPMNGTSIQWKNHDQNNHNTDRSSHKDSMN

SMILES	effective concentration (Yoshitomi et al. 2000, rabbit ciliary artery) [µM]	affinity for the ETA receptor relative to ETB receptor [1]	effective concentration (endothelin receptor antagonist, Giersbergen et al. 2005) [µg/mL]
CC[C@@H]1C(=O)OC[C@@H]1Cc1cncn1C [pilocarpine]	1 to 10	–	–
COc1ccccc1Oc1c(NS(=O)(=O)c2ccc(C(C)(C)C)cc2)nc(-c2ncccn2)nc1OCCO [Bosentan]	–	slightly higher affinity	0.3 to 3
